≈ marks a conversion by molar mass, not a printed value. Non-standard residues stand in square brackets, D forms with d. Residues, ends and D or L forms follow the SMILES beside them. No end group written: not given here. *: point of attachment. Myristoyl = CCCCCCCCCCCCCC(=O)*; Lauroyl = CCCCCCCCCCCC(=O)*; Octanoyl = CCCCCCCC(=O)*
Experiments:
Format in all cases: cell-based
[1] = system: E. coli ATCC 25922
Procedure: (§1) The antibacterial activity of peptides was evaluated using a standard broth microdilution protocol (Clinical Laboratories Standards Institute (CLSI): M07-A10. Methods for Dilution Antimicrobial Susceptibility Tests for Bacteria that grow aerobically; Approved Standard, Tenth Edition, 2015) with minor modifications as described (Mishra, et al. (2019) Proc. Natl. Acad. Sci., 116:13517-13522). In brief, peptides (10 μL per well) with 2-fold dilutions were made in 96-well polystyrene microplates. Subsequently, the logarithmic phase bacterial cultures (i.e., optical density at 600 nm ˜0.5) were diluted to 0.001 OD and aliquoted to 90 μL per well. The plates were incubated overnight at 37°° C. Bacterial controls were treated with water, and the wells containing only the TSB media were used as blank. Positive controls included the parent peptide LL-37 as well as KR12. Post incubation, the plates were read at 630 nm using ChroMate® 4300 Microplate Reader (Awareness Technology, FL).
(§2) To study the influence of medium conditions on the antimicrobial activity of peptides against S. aureus USA300, different pH, sodium chloride (NaCl), human sera were included into the antibacterial assays. Control experiments in TSB without any additions (pH 7.4) were set up in the same manner. In addition, antimicrobial activities of human LL-37, KR12, and C10-KR8d were compared in 10%, 50%, and 100% TSB as well as in TSB and MHB using E. coli ATCC 25922 and S. aureus USA300 LAC.

[2] = system: Klebsiella pneumonia ATCC 13883; assay: Antibacterial broth microdilution MIC
Procedure: as §1

[3] = system: human red blood cells (hRBCs); conditions: red cells of human, 1 h
Procedure: Hemolytic assays of peptides were performed as described (Lakshmaiah, et al. (2020) Proc. Natl. Acad. Sci., 117:19446-19454). Briefly, human red blood cells (hRBCs) were obtained from UNMC Blood Bank. The cells were washed 3× with isotonic saline (0.9% NaCl) and diluted to 2% (v/v). Peptides at various concentrations were added to the 2% blood cells and incubated at 37° C. for 1 hour. Post-incubation, the plates were spun at 2000 rpm for 10 minutes; aliquots of the supernatant were carefully transferred to a fresh 96-well microplate. The amount of cells lysed is proportional to the hemoglobin released and was measured at 545 nm using a ChroMate® microplate reader (Awareness Technology, FL). The percent lysis was calculated by assuming 100% release when human blood cells were treated with 1% Triton™ X-100, and 0% release when incubated with PBS. The peptide concentration that caused 50% lysis of hRBCs is defined as HC50. The cell selectivity index (CSI) was calculated as the ratio between HC50 and the MIC of the corresponding peptide against MRSA.

[4] = system: S. aureus Mu50
Procedure: as §1

[5] = system: S. aureus Newman
Procedure: as §1

[6] = system: S. aureus USA200
Procedure: as §1

[7] = system: S. aureus USA400
Procedure: as §1

[8] = system: S. aureus USA300 LAC; conditions: USA300
Procedure: as §1, §2

[9] = system: P. aeruginosa PAO1
Procedure: as §1

[10] = system: S. aureus USA300 LAC; assay: Bacterial membrane permeation (propidium iodide); conditions: 12.5 μM
Procedure: The experiment was performed as described with minor modifications (Mishra, et al. (2019) Proc. Natl. Acad. Sci., 116:13517-13522). Serially diluted 10×peptides (10 μL each well) were created in 96-well microtiter plates. Propidium iodide (2 μL) at a fixed concentration of 20 μM was added to each well followed by 88 μL of the exponential phase S. aureus USA300 culture (a final OD600˜0.1 in TSB media or PBS). Both daptomycin (98%, TSZChem, MA) and rifamycin (98%, Alfa Aesar, MA) were used as controls. The plate was incubated at 37° C. with continuous shaking at 100 rpm in a FLUOstar® Omega (BMG LABTECH, NC) microplate reader. The samples fluorescence was read at every 5 minutes for 24 cycles with excitation and emission wavelengths of 584 and 620 nm, respectively. Plots were generated using average values from the experiments using GraphPad Prism 7.

Compound	MIC (μM) EC [1]	MIC (μM) KP [2]	HC50 [3]	MIC (μM) SA [8]	MIC (μM) PA [9]	further results
CCCCCCCC(=O)N[C@H](CCCCN)C(=O)N[C@H](CCCNC(=N)N)C(=O)N[C@@H](C(=O)N[C@H](Cc1c[nH]c2ccccc12)C(=O)N[C@H](CCC(N)=O)C(=O)N[C@H](CCCNC(=N)N)C(=O)N[C@@H](C(=O)N[C@H](CCCCN)C(=O)N[C@H](CC(=O)O)C(=O)N[C@H](Cc1ccccc1)C(N)=O)[C@H](C)CC)[C@H](C)CC [Peptide C8-KR10d] (Octanoyl-[dK][dR][dI][dW][dQ][dR][dI][dK][dD][dF]-NH2)	6.2 µM (≈ 9.39 µg/mL)	12.5 µM (≈ 18.9 µg/mL)	150 µM	–	–	Minimal inhibitory concentration, Mu50 [4]: 3.1 µM (≈ 4.7 µg/mL); Minimal inhibitory concentration, Newman [5]: 3.1 µM (≈ 4.7 µg/mL); Minimal inhibitory concentration, USA200 [6]: 3.1 µM (≈ 4.7 µg/mL); Minimal inhibitory concentration, USA400 [7]: 3.1 µM (≈ 4.7 µg/mL)
CCCCCCCCCCCC(=O)N[C@@H](CCCCN)C(=O)N[C@@H](CCCNC(=N)N)C(=O)N[C@H](C(=O)N[C@@H](Cc1c[nH]c2ccccc12)C(N)=O)[C@@H](C)CC [Peptide C12-KR4] (Lauroyl-KRIW-NH2)	12.5 µM (≈ 9.79 µg/mL)	>50 µM	30 µM	3.1 µM (≈ 2.43 µg/mL)	6.2 µM (≈ 4.86 µg/mL)	–
CCCCCCCCCCCC(=O)N[C@@H](CCCCN)C(=O)N[C@@H](CCCNC(=N)N)C(=O)N[C@H](C(=O)N[C@@H](Cc1c[nH]c2ccccc12)C(=O)N[C@@H](CCC(N)=O)C(=O)N[C@@H](CCCNC(=N)N)C(N)=O)[C@@H](C)CC [Peptide C12-KR6] (Lauroyl-KRIWQR-NH2)	12.5 µM (≈ 13.3 µg/mL)	>50 µM	75 µM	3.1 µM (≈ 3.31 µg/mL)	6.2 µM (≈ 6.62 µg/mL)	–
CCCCCCCCCCCC(=O)N[C@@H](CCCCN)C(=O)N[C@@H](CCCNC(=N)N)C(=O)N[C@H](C(=O)N[C@@H](Cc1c[nH]c2ccccc12)C(=O)N[C@@H](CCC(N)=O)C(=O)N[C@@H](CCCNC(=N)N)C(=O)N[C@H](C(=O)N[C@@H](CCCCN)C(N)=O)[C@@H](C)CC)[C@@H](C)CC [Peptide C12-KR8] (Lauroyl-KRIWQRIK-NH2)	6.2 µM (≈ 8.11 µg/mL)	>50 µM	35 µM	1.5 µM (≈ 1.96 µg/mL)	3.1 µM (≈ 4.06 µg/mL)	–
CCCCCCCCCCCC(=O)N[C@@H](CCCCN)C(=O)N[C@@H](CCCNC(=N)N)C(=O)N[C@H](C(=O)N[C@@H](Cc1c[nH]c2ccccc12)C(=O)N[C@@H](CCC(N)=O)C(=O)N[C@@H](CCCNC(=N)N)C(=O)N[C@H](C(=O)N[C@@H](CCCCN)C(=O)N[C@@H](CC(=O)O)C(=O)N[C@@H](Cc1ccccc1)C(=O)N[C@@H](CC(C)C)C(=O)N[C@@H](CCCNC(=N)N)C(N)=O)[C@@H](C)CC)[C@@H](C)CC [Peptide C12-KR12] (Lauroyl-KRIWQRIKDFLR-NH2)	>50 µM	12.5 µM (≈ 23 µg/mL)	<25 µM	6.2 µM (≈ 11.4 µg/mL)	>50 µM	–
CCCCCCCCCCCCCC(=O)N[C@@H](CCCCN)C(=O)N[C@@H](CCCNC(=N)N)C(=O)N[C@H](C(=O)N[C@@H](Cc1c[nH]c2ccccc12)C(N)=O)[C@@H](C)CC [Peptide C14-KR4] (Myristoyl-KRIW-NH2)	12.5 to 50 µM	12.5 µM (≈ 10.1 µg/mL)	<25 µM	3.1 µM (≈ 2.51 µg/mL)	6.2 µM (≈ 5.03 µg/mL)	–
CCCCCCCCCCCCCC(=O)N[C@@H](CCCCN)C(=O)N[C@@H](CCCNC(=N)N)C(=O)N[C@H](C(=O)N[C@@H](Cc1c[nH]c2ccccc12)C(=O)N[C@@H](CCC(N)=O)C(=O)N[C@@H](CCCNC(=N)N)C(N)=O)[C@@H](C)CC [Peptide C14-KR6] (Myristoyl-KRIWQR-NH2)	12.5 µM (≈ 13.7 µg/mL)	>50 µM	<25 µM	3.1 µM (≈ 3.4 µg/mL)	6.2 µM (≈ 6.79 µg/mL)	–
CCCCCCCCCCCCCC(=O)N[C@@H](CCCCN)C(=O)N[C@@H](CCCNC(=N)N)C(=O)N[C@H](C(=O)N[C@@H](Cc1c[nH]c2ccccc12)C(=O)N[C@@H](CCC(N)=O)C(=O)N[C@@H](CCCNC(=N)N)C(=O)N[C@H](C(=O)N[C@@H](CCCCN)C(N)=O)[C@@H](C)CC)[C@@H](C)CC [Peptide C14-KR8] (Myristoyl-KRIWQRIK-NH2)	12.5 µM (≈ 16.7 µg/mL)	>50 µM	<25 µM	<1.5 µM	6.2 µM (≈ 8.29 µg/mL)	–
CCCCCCCCCCCCCC(=O)N[C@@H](CCCCN)C(=O)N[C@@H](CCCNC(=N)N)C(=O)N[C@H](C(=O)N[C@@H](Cc1c[nH]c2ccccc12)C(=O)N[C@@H](CCC(N)=O)C(=O)N[C@@H](CCCNC(=N)N)C(=O)N[C@H](C(=O)N[C@@H](CCCCN)C(=O)N[C@@H](CC(=O)O)C(=O)N[C@@H](Cc1ccccc1)C(N)=O)[C@@H](C)CC)[C@@H](C)CC [Peptide C14-KR10] (Myristoyl-KRIWQRIKDF-NH2)	50 µM (≈ 80 µg/mL)	6.2 µM (≈ 9.91 µg/mL)	<25 µM	3.1 µM (≈ 4.96 µg/mL)	12.5 µM (≈ 20 µg/mL)	–
CO[C@H]1/C=C/O[C@@]2(C)Oc3c(C)c(O)c4c(O)c(cc(O)c4c3C2=O)NC(=O)/C(C)=C\C=C\[C@H](C)[C@H](O)[C@@H](C)[C@@H](O)[C@@H](C)[C@H](OC(C)=O)[C@@H]1C [rifamycin, reference compound]	–	–	–	–	–	membrane permeation (propidium iodide fluorescence) [10]: unable to achieve the same effect
KRIVQRIKDFLR-NH2 [KR12, reference compound]	50 µM	>50 µM	>340 µM	–	25 µM	Minimal inhibitory concentration against E. coli, 10% TSB [1]: 1.6 µM; Minimal inhibitory concentration against E. coli, 50% TSB [1]: 3.1 µM; Minimal inhibitory concentration against E. coli, 100% MHB [1]: >50 µM; Minimal inhibitory concentration against S. aureus, 10% TSB [8]: 6.2 µM; Minimal inhibitory concentration against S. aureus, 50% TSB [8]: >50 µM; Minimal inhibitory concentration against S. aureus, 100% MHB [8]: >50 µM; Minimal inhibitory concentration against S. aureus, 100% TSB [8]: >50 µM
